Inconclusive results and toxic doses are left out. No stated cut-off is given here; in the data, active means T/C of 150% or more; inactive means T/C below 125%.
Test system: L1210 leukemia ip in BDF1 mice, survival T/C
Experiment: NCI In Vivo Anticancer Drug Screen. Data for tumor model L1210 Leukemia (intraperitoneal) in B6D2F1 (BDF1) mice
Settings: endpoint: mean survival time, higher = longer survival
Outline: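 Read-out is survival time, reported as the treated-group measurement over the vehicle-control measurement.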

[1] = dose: 100.0 mg/kg/injection, schedule: Q01DX009 (ip), vehicle: saline with Tween-80
[2] = dose: 200.0 mg/kg/injection, schedule: Q01DX009 (ip), vehicle: saline with Tween-80
[3] = dose: 50.0 mg/kg/injection, schedule: Q01DX001 (ip), vehicle: Klucel (hydroxypropylcellulose) (HPC)
[4] = dose: 100.0 mg/kg/injection, schedule: Q01DX001 (ip), vehicle: Klucel (hydroxypropylcellulose) (HPC)
[5] = dose: 200.0 mg/kg/injection, schedule: Q01DX001 (ip), vehicle: Klucel (hydroxypropylcellulose) (HPC)
[6] = dose: 400.0 mg/kg/injection, schedule: Q01DX009 (ip), vehicle: saline with Tween-80
[7] = dose: 50.0 mg/kg/injection, schedule: Q01DX001 (ip), vehicle: saline
[8] = dose: 100.0 mg/kg/injection, schedule: Q01DX001 (ip), vehicle: saline
[9] = dose: 200.0 mg/kg/injection, schedule: Q01DX001 (ip), vehicle: saline
[10] = dose: 400.0 mg/kg/injection, schedule: Q01DX001 (ip), vehicle: saline
[11] = dose: 100.0 mg/kg/injection, schedule: Q04DX002 (ip), vehicle: Klucel (hydroxypropylcellulose) (HPC)
[12] = dose: 200.0 mg/kg/injection, schedule: Q04DX002 (ip), vehicle: Klucel (hydroxypropylcellulose) (HPC)
[13] = dose: 400.0 mg/kg/injection, schedule: Q04DX002 (ip), vehicle: Klucel (hydroxypropylcellulose) (HPC)
[14] = dose: 100.0 mg/kg/injection, schedule: Q04DX003 (ip), vehicle: Klucel (hydroxypropylcellulose) (HPC)
[15] = dose: 200.0 mg/kg/injection, schedule: Q04DX003 (ip), vehicle: Klucel (hydroxypropylcellulose) (HPC)
[16] = dose: 400.0 mg/kg/injection, schedule: Q01DX001 (ip), vehicle: Klucel (hydroxypropylcellulose) (HPC)
[17] = dose: 100.0 mg/kg/injection, schedule: Q01DX009 (ip), vehicle: Klucel (hydroxypropylcellulose) (HPC)
[18] = dose: 200.0 mg/kg/injection, schedule: Q01DX009 (ip), vehicle: Klucel (hydroxypropylcellulose) (HPC)
[19] = dose: 400.0 mg/kg/injection, schedule: Q04DX003 (ip), vehicle: Klucel (hydroxypropylcellulose) (HPC)
[20] = dose: 400.0 mg/kg/injection, schedule: Q01DX009 (ip), vehicle: Klucel (hydroxypropylcellulose) (HPC)
[21] = dose: 12.5 mg/kg/injection, schedule: Q04DX003 (ip), vehicle: saline with Tween-80

Measured: T/C

O=Cc1[nH]c(=S)[nH]c(=O)c1Cc1cccc2ccccc12
inactive: [1] 97 % of control | [2] 101 % of control

CCOC(=O)c1[nH]c(=O)nc(N)c1Oc1ccccc1
inactive: [3] 98 % of control | [4] 92 % of control | [5] 93 % of control

S=c1[nH]c2nccnc2[nH]1
inactive: dose: 25.0 mg/kg/injection, schedule: Q01DX009 (ip), vehicle: saline with Tween-80 96 % of control | dose: 50.0 mg/kg/injection, schedule: Q01DX009 (ip), vehicle: saline with Tween-80 96 % of control | [1] 93 % of control | [2] 97 % of control | [6] 104 % of control

O=C(O)CC1COc2ccccc2O1 (stereo unspecified)
inactive: dose: 100.0 mg/kg/injection, schedule: Q01DX001 (ip), vehicle: carboxymethylcellulose (CMC) 91 % of control | dose: 200.0 mg/kg/injection, schedule: Q01DX001 (ip), vehicle: carboxymethylcellulose (CMC) 105 % of control | dose: 400.0 mg/kg/injection, schedule: Q01DX001 (ip), vehicle: carboxymethylcellulose (CMC) 94 % of control

O=C(O)/C=C\Cc1cccc(=O)[nH]1
inactive: [3] 94 % of control | [4] 95 % of control | [5] 97 % of control

O=C(CCCC(=O)NNC(=S)Nc1ccc2ccccc2c1)NNC(=S)Nc1ccc2ccccc2c1
inactive: [7] 98 % of control | [8] 93 % of control | [9] 93 % of control | [10] 90 % of control

COc1ccc(C2CCc3cc4c(cc3C2=O)OCO4)cc1OC (stereo unspecified)
inactive: [1] 98 % of control | [2] 98 % of control | [6] 98 % of control

CC(=O)OC(OC(C)=O)c1ccccc1
inactive: [11] 106 % of control | [12] 110 % of control | [13] 103 % of control

N#CC(C#N)=C1CCC(=C(C#N)C#N)CC1
inactive: dose: 50.0 mg/kg/injection, schedule: Q04DX003 (ip), vehicle: Klucel (hydroxypropylcellulose) (HPC) 104 % of control | [4] 105 % of control | [14] 121 % of control | [5] 118 % of control | [15] 96 % of control | [16] 105 % of control

O=C(CC(=O)c1cccc(NC(=O)CC(/C=C/C=C/CCCCCCCCCCCCCCCCC2CC(=O)OC2=O)C(=O)O)c1)Nc1ccccc1 (stereo unspecified)
inactive: dose: 75.0 mg/kg/injection, schedule: Q04DX003 (ip), vehicle: Klucel (hydroxypropylcellulose) (HPC) 94 % of control | [4] 90 % of control | dose: 150.0 mg/kg/injection, schedule: Q04DX003 (ip), vehicle: Klucel (hydroxypropylcellulose) (HPC) 95 % of control | [5] 90 % of control | dose: 300.0 mg/kg/injection, schedule: Q04DX003 (ip), vehicle: Klucel (hydroxypropylcellulose) (HPC) 103 % of control | [16] 87 % of control

COc1ccc(CC(N)C(=O)O)cc1 (stereo unspecified)
inactive: [17] 103 % of control | [14] 101 % of control | [18] 92 % of control | [15] 101 % of control | [19] 106 % of control

O=C(O)CSC(SCC(=O)O)(c1ccccc1)c1ccccc1
inactive: [11] 88 % of control | [12] 104 % of control | [13] 102 % of control

CC(=O)N(C)C1=C(Sc2ccc(C)cc2)C(=O)c2ccccc2C1=O
inactive: dose: 150.0 mg/kg/injection, schedule: Q01DX001 (ip), vehicle: carboxymethylcellulose (CMC) 93 % of control

CC/C=C/c1cccc(OC)c1
inactive: [17] 102 % of control | [14] 105 % of control | [18] 96 % of control | [15] 110 % of control | [20] 95 % of control | [19] 96 % of control

O=C1C=Cc2ccccc2C1=O
inactive: dose: 0.78 mg/kg/injection, schedule: Q01DX001 (ip), vehicle: Klucel (hydroxypropylcellulose) (HPC) 103 % of control | dose: 1.56 mg/kg/injection, schedule: Q01DX001 (ip), vehicle: Klucel (hydroxypropylcellulose) (HPC) 95 % of control | dose: 3.13 mg/kg/injection, schedule: Q01DX001 (ip), vehicle: Klucel (hydroxypropylcellulose) (HPC) 88 % of control

CCC1CCCCN1C (stereo unspecified)
inactive: dose: 25.0 mg/kg/injection, schedule: Q01DX009 (ip), vehicle: acetone 96 % of control | dose: 50.0 mg/kg/injection, schedule: Q01DX009 (ip), vehicle: acetone 94 % of control | dose: 100.0 mg/kg/injection, schedule: Q01DX009 (ip), vehicle: acetone 100 % of control

CCOP(=O)(OCC)OCc1ccccc1
inactive: [21] 98 % of control

COc1ccc(S(=O)(=O)F)cc1NC(=O)NCCOc1ccc(-n2cnc3c(=O)[nH]c(N)nc32)cc1
inactive: [4] 102 % of control | [5] 97 % of control | [16] 96 % of control

O=c1c2ccccc2sc2c1ccc1ccccc12
inactive: [14] 100 % of control | [15] 103 % of control | [19] 96 % of control

Nc1scc2[nH]c3ccccc3[n+]12
inactive: dose: 100.0 mg/kg/injection, schedule: Q04DX002 (ip), vehicle: saline 100 % of control | dose: 200.0 mg/kg/injection, schedule: Q04DX002 (ip), vehicle: saline 104 % of control

O=c1cc(NC(c2ccccc2)c2ccccc2)[nH]c(=O)[nH]1
inactive: [14] 97 % of control | [15] 97 % of control | [19] 98 % of control

O=[N+]([O-])c1cc(Cl)cc2c1nc(NCCO)c1ccccc12
inactive: dose: 25.0 mg/kg/injection, schedule: Q01DX009 (ip), vehicle: Klucel (hydroxypropylcellulose) (HPC) 95 % of control | dose: 50.0 mg/kg/injection, schedule: Q01DX009 (ip), vehicle: Klucel (hydroxypropylcellulose) (HPC) 97 % of control | [14] 97 % of control

COc1ccc(C(C(N)=O)N2CCOCC2)cc1 (stereo unspecified)
inactive: [17] 98 % of control | [14] 95 % of control | [18] 100 % of control | [15] 98 % of control | [20] 97 % of control | [19] 104 % of control

CCN(CC)CCCC(C)Nc1ccnc(C)c1 (stereo unspecified)
inactive: dose: 10.0 mg/kg/injection, schedule: Q04DX003 (ip), vehicle: other 100 % of control | dose: 20.0 mg/kg/injection, schedule: Q04DX003 (ip), vehicle: other 95 % of control | dose: 40.0 mg/kg/injection, schedule: Q04DX003 (ip), vehicle: other 94 % of control

CCCCCCCCCCCC(=O)[O][Pb]([CH2]C)([CH2]C)[CH2]C
inactive: dose: 6.25 mg/kg/injection, schedule: Q04DX003 (ip), vehicle: saline with Tween-80 101 % of control | [21] 102 % of control | dose: 100.0 mg/kg/injection, schedule: Q04DX003 (ip), vehicle: saline with Tween-80 106 % of control

CCCCC(C(=O)OCC)C(CCC1CCCCC1)(C(=O)OCC)C(=O)OCC (stereo unspecified)
inactive: [17] 95 % of control | [14] 96 % of control | [18] 110 % of control | [15] 106 % of control | [20] 105 % of control | [19] 95 % of control

CSc1ccc(C(=O)NN)cc1
inactive: [7] 101 % of control | [8] 101 % of control | [9] 101 % of control | [10] 104 % of control

Source: PubChem BioAssay AID248 (DTP/NCI, 2004)
